The record followed here is patent publication US10952415B2, “Prostate cancer cell lines, gene signatures and uses thereof” (priority 2011, dated 2021).

One assay relates to PEC lines. As to the kind of experiment: Experimental metastasis assay: intracardiac injection of Luc2-Tomato-Red PEC lines, bioluminescence, X-ray and F-18-NaF imaging. The format is in vivo, FVB mice.
In a further assay the test system is PEC-Src line. As to the kind of experiment: Three-dimensional (Matrigel) invasion assay. It counts as cell-based, murine. The conditions noted are these: 10 ug/ml osteopontin or 15 ng/ml CCL5 as chemoattractant in upper chamber, three days. As for the experimental part: The three-dimensional invasion assay was performed as previously reported. […] The transwell was incubated at 37° C. overnight to allow the collagen to solidify. 30,000 cells were then seeded on the bottom of the transwell membrane and allowed to attach. Serum-free growth medium was placed into the bottom chamber, while 10 ug/ml osteopontin (R&D System), or 15 ng/ml CCL5 (R&D System), or 10% FBS was used as a chemo attractant in the medium of the upper chamber. The cells were then chemo attracted across the filter through the collagen above for three days. Cells were fixed in 4% formaldehyde, permeabilized with 0.2% Triton-X in PBS and then stained with […] propidium iodide (PI) for 2 h. Fluorescence was analyzed by confocal z sections (one section every […]) at 10× magnification from the bottom of the filter using a Zeiss LSM 510 Meta inverted confocal microscope at the Kimmel Cancer Center Bioimaging Facilit.
For the comparison to tissue, the in vivo tumor gene expression in the oncogene transformed PEC was compared with the expression in vivo in the dorsolateral ventral prostate of mice with the same strain. […] Upregulation of the receptor ligands CCL2, CCL7, and CCL8 was observed (2- to 3-fold). CCL7, CCL8 and CCL5 are ligands for CCR5, CCL8 and CCL5 for CCR1 (FIG. 16H). […]

Setting [1] is: Maraviroc 8 mg/kg oral vs control, FVB mice, 2 weeks after intracardiac injection of PEC lines, N=8 per group.

As to Maraviroc, in the assay on PEC lines (setting [1]), the “reduction of bony metastasis (lower limb bony mass)” value was above 50% and the “reduction of total body metastatic burden (photon flux)” value was above 50%. The “effect on metastasis (result in words)” value in the assay on PEC lines (daily oral CCR5 antagonist, bony / spinal osteolytic metastasis in mice) was “reduction in metastasis”. For the same molecule, the “reduction of spine metastasis” value in the assay with PEC lines (daily oral treatment, F-18-NaF imaging correlated with X-ray, FVB mice) is above 90%.
Consider osteopontin [OPN], for which, in the assay with PEC-Src line, the “Matrigel invasion of the PEC-Src line (result in words)” value is on record as “enhanced PEC invasiveness into matrigel”.

B1: CCR5: printed CCR5, probably CCL5 (R&D System), the CCR5 ligand used as chemoattractant (protein, UniProt P13501 24-91, looked up)
C-C motif chemokine 5: SPYSSDTTPCCFAYIARPLPRAHIKEYFYTSGKCSNPAVVFVTRKNRQVCANPEKKWVREYINSLEMS
Turning to B1, the “Matrigel invasion of the PEC-Src line (result in words)” value in the assay on PEC-Src line is listed as “enhanced PEC invasiveness into matrigel”.
